Biological target: T1, Full length human recombinant HDAC6 protein (Homo sapiens, UniProt Q9UBN7)
T1 sequence (Q9UBN7 1-1215): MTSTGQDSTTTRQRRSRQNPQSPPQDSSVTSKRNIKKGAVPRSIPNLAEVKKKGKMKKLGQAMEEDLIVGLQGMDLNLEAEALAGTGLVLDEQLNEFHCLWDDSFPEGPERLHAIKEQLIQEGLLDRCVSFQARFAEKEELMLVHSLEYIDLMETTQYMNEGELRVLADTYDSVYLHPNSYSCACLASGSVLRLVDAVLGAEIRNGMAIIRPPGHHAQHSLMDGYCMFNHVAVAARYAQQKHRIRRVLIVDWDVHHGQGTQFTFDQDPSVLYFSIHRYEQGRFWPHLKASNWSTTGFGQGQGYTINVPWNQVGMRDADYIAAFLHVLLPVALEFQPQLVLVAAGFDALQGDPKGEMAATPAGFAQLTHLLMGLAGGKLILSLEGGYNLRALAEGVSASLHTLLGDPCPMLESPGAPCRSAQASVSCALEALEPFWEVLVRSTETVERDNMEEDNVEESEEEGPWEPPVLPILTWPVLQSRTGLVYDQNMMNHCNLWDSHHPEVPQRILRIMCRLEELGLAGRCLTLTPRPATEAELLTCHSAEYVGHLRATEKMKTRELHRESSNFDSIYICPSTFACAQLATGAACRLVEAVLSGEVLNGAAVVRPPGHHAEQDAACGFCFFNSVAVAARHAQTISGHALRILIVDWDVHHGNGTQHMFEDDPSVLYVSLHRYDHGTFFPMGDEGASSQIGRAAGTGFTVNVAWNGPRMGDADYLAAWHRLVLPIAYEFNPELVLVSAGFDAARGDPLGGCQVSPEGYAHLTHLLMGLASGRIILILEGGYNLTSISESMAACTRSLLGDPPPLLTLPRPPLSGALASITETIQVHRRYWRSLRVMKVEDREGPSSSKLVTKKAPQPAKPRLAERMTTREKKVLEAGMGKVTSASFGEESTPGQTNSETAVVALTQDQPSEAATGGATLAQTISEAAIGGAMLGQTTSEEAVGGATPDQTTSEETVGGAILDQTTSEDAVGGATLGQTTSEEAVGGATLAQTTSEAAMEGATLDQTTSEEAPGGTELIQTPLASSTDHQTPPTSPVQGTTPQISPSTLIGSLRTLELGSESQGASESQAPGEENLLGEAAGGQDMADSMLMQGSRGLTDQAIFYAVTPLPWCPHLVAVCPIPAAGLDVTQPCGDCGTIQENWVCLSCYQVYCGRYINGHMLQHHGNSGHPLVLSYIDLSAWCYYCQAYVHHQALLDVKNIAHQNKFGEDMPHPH
Assay: In vitro histone deacetylase assay: enzymatic HDAC6 electrophoretic mobility shift assay
Format: biochemical
Details: 1 nM enzyme, 2 μM peptide substrate RHKK(Ac)-NH2, 25° C., 12 concentrations; read-out: Inhibitory Concentration (IC50) Values against HDAC6, Activity Range

Structure (SMILES)	IC50
COc1ccc(CC(C(=O)N2CCOc3cc(C(=O)NO)ccc3C2)c2ccccc2)cc1 (centres unmarked) [N-hydroxy-4-(3-(4-methoxyphenyl)-2-phenylpropanoyl)-2,3,4,5-tetrahydrobenzo[f][1,4]oxazepine-8-carboxamide]	100 to 500 nM
C[C@H]1COc2cc(C(=O)NO)ccc2CN1C(=O)[C@H]1CC2CCC1O2 (stereo partly drawn) [(3S)-4-((2S)-7-oxabicyclo[2.2.1]heptane-2-carbonyl)-N-hydroxy-3-methyl-2,3,4,5-tetrahydrobenzo[f][1,4]oxazepine-8-carboxamide]	≤ 100 nM
CN(CC(=O)N1CCOc2cc(C(=O)NO)ccc2C1)S(C)(=O)=O [N-hydroxy-4-(N-methyl-N-(methylsulfonyl)glycyl)-2,3,4,5-tetrahydrobenzo[f][1,4]oxazepine-8-carboxamide]	100 to 500 nM
C[C@H]1COc2cc(C(=O)NO)ccc2CN1C(=O)C1CC(Oc2ccccc2)C1 (single isomer, unassigned)	≤ 100 nM
COCC1(C(=O)N2CCOc3cc(C(=O)NO)ccc3[C@@H]2C)COC1 [(S)-N-hydroxy-4-(3-(methoxymethyl)oxetane-3-carbonyl)-5-methyl-2,3,4,5-tetrahydrobenzo[f][1,4]oxazepine-8-carboxamide]	≤ 100 nM
C[C@H]1c2ccc(C(=O)NO)cc2OCCN1C(=O)[C@]1(C)CCCOC1 [(S)-N-hydroxy-5-methyl-4-((R)-3-methyltetrahydro-2H-pyran-3-carbonyl)-2,3,4,5-tetrahydrobenzo[f][1,4]oxazepine-8-carboxamide]	≤ 100 nM
O=C(NO)c1ccc2c(c1)OCCN(C(=O)C(OC1CCOCC1)c1ccccc1)C2 (centres unmarked) [N-hydroxy-4-(2-phenyl-2-((tetrahydro-2H-pyran-4-yl)oxy)acetyl)-2,3,4,5-tetrahydrobenzo[f][1,4]oxazepine-8-carboxamide]	> 500 nM
C[C@H]1COc2cc(C(=O)NO)ccc2CN1C(=O)c1nc2ccccc2[nH]1 [(S)-4-(1H-benzo[d]imidazole-2-carbonyl)-N-hydroxy-3-methyl-2,3,4,5-tetrahydrobenzo[f][1,4]oxazepine-8-carboxamide]	≤ 100 nM
Cc1nnnn1C(C(=O)N1CCOc2cc(C(=O)NO)ccc2C1)c1ccccc1 (centres unmarked) [N-hydroxy-4-(2-(5-methyl-1H-tetrazol-1-yl)-2-phenylacetyl)-2,3,4,5-tetrahydrobenzo[f][1,4]oxazepine-8-carboxamide]	100 to 500 nM
CC(C)(C)OC(C(=O)N1CCOc2cc(C(=O)NO)ccc2C1)c1ccccc1 (centres unmarked) [4-(2-(tert-butoxy)-2-phenylacetyl)-N-hydroxy-2,3,4,5-tetrahydrobenzo[f][1,4]oxazepine-8-carboxamide]	100 to 500 nM
CC(=O)N1CCC(C(=O)N2Cc3ccc(C(=O)NO)cc3OC[C@@H]2C)C1 (stereo partly drawn) [(3S)-4-(1-acetylpyrrolidine-3-carbonyl)-N-hydroxy-3-methyl-2,3,4,5-tetrahydrobenzo[f][1,4]oxazepine-8-carboxamide]	≤ 100 nM
CC(C)[C@@H]1COc2cc(C(=O)NO)ccc2CN1C(=O)C1(C)CCC1 [(R)-N-hydroxy-3-isopropyl-4-(1-methylcyclobutane-1-carbonyl)-2,3,4,5-tetrahydrobenzo[f][1,4]oxazepine-8-carboxamide]	> 500 nM
COC(C(=O)N1CCOc2cc(C(=O)NO)ccc2C1)c1ccccc1 (centres unmarked) [N-hydroxy-4-(2-methoxy-2-phenylacetyl)-2,3,4,5-tetrahydrobenzo[f][1,4]oxazepine-8-carboxamide]	100 to 500 nM
CO[C@H]1CC[C@H](C(=O)N2CCOc3cc(C(=O)NO)ccc3[C@@H]2C)CC1 (single isomer, unassigned)	≤ 100 nM
CC1(C(=O)N2CCOc3cc(C(=O)NO)ccc3C2)CCCCC1 [N-hydroxy-4-(1-methylcyclohexane-1-carbonyl)-2,3,4,5-tetrahydrobenzo[f][1,4]oxazepine-8-carboxamide]	≤ 100 nM
C[C@H]1COc2cc(C(=O)NO)ccc2CN1C(=O)C(C)(C)C1CCOCC1 [(S)-N-hydroxy-3-methyl-4-(2-methyl-2-(tetrahydro-2H-pyran-4-yl)propanoyl)-2,3,4,5-tetrahydrobenzo[f][1,4]oxazepine-8-carboxamide]	≤ 100 nM
CC(C)(C)OC(=O)N1CC2(CC(C(=O)N3CCOc4cc(C(=O)NO)ccc4C3)CS2(=O)=O)C1 (centres unmarked) [tert-butyl 7-(8-(hydroxycarbamoyl)-2,3,4,5-tetrahydrobenzo[f][1,4]oxazepine-4-carbonyl)-5-thia-2-azaspiro[3.4]octane-2-carboxylate 5,5-dioxide]	100 to 500 nM
CC[C@H]1COc2cc(C(=O)NO)ccc2CN1C(=O)C1CCOCC1 [(S)-3-ethyl-N-hydroxy-4-(tetrahydro-2H-pyran-4-carbonyl)-2,3,4,5-tetrahydrobenzo[f][1,4]oxazepine-8-carboxamide]	≤ 100 nM
COCC1(C(=O)N2Cc3ccc(C(=O)NO)cc3OC[C@@H]2C)CCOCC1 [(S)-N-hydroxy-4-(4-(methoxymethyl)tetrahydro-2H-pyran-4-carbonyl)-3-methyl-2,3,4,5-tetrahydrobenzo[f][1,4]oxazepine-8-carboxamide]	≤ 100 nM
C[C@H]1COc2cc(C(=O)NO)ccc2CN1C(=O)[C@]1(C)CCCCO1 [(S)-N-hydroxy-3-methyl-4-((S)-2-methyltetrahydro-2H-pyran-2-carbonyl)-2,3,4,5-tetrahydrobenzo[f][1,4]oxazepine-8-carboxamide]	≤ 100 nM
CC(Oc1ccccc1)C(=O)N1CCOc2cc(C(=O)NO)ccc2C1 (centres unmarked) [N-hydroxy-4-(2-phenoxypropanoyl)-2,3,4,5-tetrahydrobenzo[f][1,4]oxazepine-8-carboxamide]	100 to 500 nM

Now from value to compound:

IC50	Structure (SMILES)
≤ 100 nM	Cc1cc(C)c(CC(=O)N2CCOc3cc(C(=O)NO)ccc3C2)c(C)c1 [N-hydroxy-4-(2-mesitylacetyl)-2,3,4,5-tetrahydrobenzo[f][1,4]oxazepine-8-carboxamide]
100 to 500 nM	CC1(C)C[C@@H]1C(=O)N1CCOc2cc(C(=O)NO)ccc2C1 [(S)-4-(2,2-dimethylcyclopropane-1-carbonyl)-N-hydroxy-2,3,4,5-tetrahydrobenzo[f][1,4]oxazepine-8-carboxamide]
≤ 100 nM	CCCNc1c(C(=O)N2CCOc3cc(C(=O)NO)ccc3C2)sc2ccccc12 [N-hydroxy-4-(3-(propylamino)benzo[b]thiophene-2-carbonyl)-2,3,4,5-tetrahydrobenzo[f][1,4]oxazepine-8-carboxamide]
100 to 500 nM	CC(C)(C(=O)N1CCOc2cc(C(=O)NO)ccc2C1)c1ccc2c(c1)OCCO2 [4-(2-(2,3-dihydrobenzo[b][1,4]dioxin-6-yl)-2-methylpropanoyl)-N-hydroxy-2,3,4,5-tetrahydrobenzo[f][1,4]oxazepine-8-carboxamide]
100 to 500 nM	CC(C)(C(=O)N1CCOc2cc(C(=O)NO)ccc2C1)c1ccc2ccccc2c1 [N-hydroxy-4-(2-methyl-2-(naphthalen-2-yl)propanoyl)-2,3,4,5-tetrahydrobenzo[f][1,4]oxazepine-8-carboxamide]
≤ 100 nM	O=C(NO)c1ccc2c(c1)OCCN(C(=O)C1(c3ccccc3Cl)CC1)C2 [4-(1-(2-chlorophenyl)cyclopropane-1-carbonyl)-N-hydroxy-2,3,4,5-tetrahydrobenzo[f][1,4]oxazepine-8-carboxamide]
100 to 500 nM	CC(C)(C(=O)N1CCOc2cc(C(=O)NO)ccc2C1)C1CCCCC1 [4-(2-cyclohexyl-2-methylpropanoyl)-N-hydroxy-2,3,4,5-tetrahydrobenzo[f][1,4]oxazepine-8-carboxamide]
≤ 100 nM	CC1(C(=O)N2CCOc3cc(C(=O)NO)ccc3C2)CC1 [N-hydroxy-4-(1-methylcyclopropane-1-carbonyl)-2,3,4,5-tetrahydrobenzo[f][1,4]oxazepine-8-carboxamide]
100 to 500 nM	O=C(NO)c1ccc2c(c1)OCCN(C(=O)c1ccc3c(c1)CCO3)C2 [4-(2,3-dihydrobenzofuran-5-carbonyl)-N-hydroxy-2,3,4,5-tetrahydrobenzo[f][1,4]oxazepine-8-carboxamide]
≤ 100 nM	CC1(C(=O)N2CCOc3cc(C(=O)NO)ccc3C2)COC1 [N-hydroxy-4-(3-methyloxetane-3-carbonyl)-2,3,4,5-tetrahydrobenzo[f][1,4]oxazepine-8-carboxamide]
≤ 100 nM	COc1ccc(C2(C(=O)N3CCOc4cc(C(=O)NO)ccc4C3)CC2)cc1 [N-hydroxy-4-(1-(4-methoxyphenyl)cyclopropane-1-carbonyl)-2,3,4,5-tetrahydrobenzo[f][1,4]oxazepine-8-carboxamide]

— patent US11891365B2, “3-alkyl-4-amido-bicyclic [4,5,0] hydroxamic acids as HDAC inhibitors” (Valo Health, Inc., priority 2015, dated 2024)
